The record followed here is ChEMBL document CHEMBL1135000, “Stereoselective and improved syntheses and anticancer testing of 3'-O-silatranylthymidines” (Bioorg Med Chem Lett, 2002).

In experiment [1] the test system is Hepatitis B virus. In words: Effective concentration required for inhibition against hepatitis B virus in HBV-producing human liver cell line 2.2.15. The conditions noted are these: HepG2 2.2.15. In kind it is functional, organism-based.
Experiment [2] concerns Hepatitis B virus. The experiment in a line: Cytotoxicity when tested for inhibition against hepatitis B virus in HBV-producing human liver cell line 2.2.15. The note with it: HepG2 2.2.15. Type of experiment: functional.
Another experiment deals with Human alphaherpesvirus 1. In words: Inhibition against herpes simplex virus type 1, measured by a cytopathic effect inhibition assay with human foreskin fibroblast (HFF)cells infected with HSV; Inactive. In kind it is functional, organism-based. The note with it: Human alphaherpesvirus 1, HFF. In general terms: Protection from cytopathic effect is a common read-out in antiviral testing.

In a further experiment the test system is Human alphaherpesvirus 2. The experiment in a line: Inhibition against herpes simplex virus type 2, measured by a cytopathic effect inhibition assay with human foreskin fibroblast (HFF) cells infected with HSV; Inactive. In kind it is functional, organism-based. The note with it: Human alphaherpesvirus 2, HFF.

A word on the EC50: it is the concentration needed to bring the measured effect to its halfway point. A lower EC50 goes with higher potency in that assay. In general, CC50 refers to the concentration that lowers cell viability or growth by half. Lower therefore signals harm at low concentration. As for `Cc1cn([C@H]2C[C@H](O[Si]34OCCN(CCO3)CCO4)[C@@H](CO)O2)c(=O)[nH]c1=O`, the EC50 with Hepatitis B virus [1] is > 10 µM. The molecule further gave a 50% cytotoxic concentration (CC50) in the experiment with Hepatitis B virus [2] of 1290 µM.
Turning to `Cc1cn([C@H]2C[C@H](O[Si]34OC(C)CN(CC(C)O3)CC(C)O4)[C@@H](CO)O2)c(=O)[nH]c1=O` (some centres undefined), the EC50 in the experiment on Human alphaherpesvirus 1 and in the experiment on Human alphaherpesvirus 2 was > 100 µg/mL throughout.
